Earlier results in patent US20260232577A1, “A MACROLIDE FOR USE IN A METHOD OF PREVENTING OR TREATING AN IMMUNOLOGICAL DISEASE OR DISORDER” (Nucleus Medical GmbH, priority 2023, published 2026).

C=CC[C@@H]1/C=C(\C)C[C@H](C)C[C@H](OC)[C@H]2O[C@@](O)(C(=O)C(=O)N3CCCC[C@H]3C(=O)O[C@H](/C(C)=C/[C@@H]3CC[C@@H](O)[C@H](OC)C3)[C@H](C)[C@@H](O)CC1=O)[C@H](C)C[C@@H]2OC [tacrolimus]
bioavailability variability (after oral administration, international literature): 4-90% | blood level fluctuations, variation range (after oral application, internationally described): more than 80% | oral bioavailability on average (limited by presystemic metabolism in the GI tract): ~ 25%
